# Experimental data taken from ChEMBL document CHEMBL4507285, “Data for DCP probe MRL-SYKi” (2021).
# Experiments:
# [1] = biological target: BMP-2-inducible protein kinase (Homo sapiens) (UniProt Q9NSY1); conditions: Compound concentration 100.0 nM
# [2] = biological target: Calcium/calmodulin-dependent protein kinase type II subunit alpha (Homo sapiens) (UniProt Q9UQM7); conditions: Compound concentration 100.0 nM
# [3] = biological target: Cyclin-dependent kinase 11B (Homo sapiens) (UniProt P21127); conditions: Compound concentration 100.0 nM
# [4] = biological target: Cyclin-dependent kinase-like 1 (Homo sapiens) (UniProt Q00532); conditions: Compound concentration 100.0 nM
# [5] = biological target: Serine/threonine-protein kinase Chk1 (Homo sapiens) (UniProt O14757); conditions: Compound concentration 100.0 nM
# [6] = biological target: Serine/threonine-protein kinase Chk2 (Homo sapiens) (UniProt O96017); conditions: Compound concentration 100.0 nM
# [7] = biological target: Casein kinase I isoform alpha-like (Homo sapiens) (UniProt Q8N752); conditions: Compound concentration 100.0 nM
# [8] = biological target: Casein kinase I isoform delta (Homo sapiens) (UniProt P48730); conditions: Compound concentration 100.0 nM
# [9] = biological target: Casein kinase I isoform gamma-2 (Homo sapiens) (UniProt P78368); conditions: Compound concentration 100.0 nM
# [10] = biological target: Dual specificity tyrosine-phosphorylation-regulated kinase 1B (Homo sapiens) (UniProt Q9Y463); conditions: Compound concentration 100.0 nM
# [11] = biological target: Ephrin type-A receptor 4 (Homo sapiens) (UniProt P54764); conditions: Compound concentration 100.0 nM
# [12] = biological target: Receptor tyrosine-protein kinase erbB-3 (Homo sapiens) (UniProt P21860); conditions: Compound concentration 100.0 nM
# [13] = biological target: Tyrosine-protein kinase Fer (Homo sapiens, UniProt P16591); conditions: Compound concentration 100.0 nM
# [14] = test system: Receptor-type tyrosine-protein kinase FLT3 (Homo sapiens), P36888 [UNDEFINED MUTATION]; conditions: Compound concentration 100.0 nM
# [15] = biological target: Mitogen-activated protein kinase kinase kinase kinase 1 (Homo sapiens) (UniProt Q92918); conditions: Compound concentration 100.0 nM
# [16] = biological target: Serine/threonine-protein kinase ICK (Homo sapiens) (UniProt Q9UPZ9); conditions: Compound concentration 100.0 nM
# [17] = biological target: Inhibitor of nuclear factor kappa-B kinase subunit beta (Homo sapiens) (UniProt O14920); conditions: Compound concentration 100.0 nM
# [18] = test system: Mast/stem cell growth factor receptor Kit (Homo sapiens), P10721 [V559D,T670I]; conditions: Compound concentration 100.0 nM
# [19] = biological target: LIM domain kinase 1 (Homo sapiens, UniProt P53667); conditions: Compound concentration 100.0 nM
# [20] = biological target: Leucine-rich repeat serine/threonine-protein kinase 2 (Homo sapiens) (UniProt Q5S007); conditions: Compound concentration 100.0 nM
# [21] = biological target: Mitogen-activated protein kinase kinase kinase 1 (Homo sapiens) (UniProt Q13233); conditions: Compound concentration 100.0 nM
# [22] = biological target: Mitogen-activated protein kinase kinase kinase 4 (Homo sapiens) (UniProt Q9Y6R4); conditions: Compound concentration 100.0 nM
# [23] = biological target: Mitogen-activated protein kinase kinase kinase kinase 5 (Homo sapiens) (UniProt Q9Y4K4); conditions: Compound concentration 100.0 nM
# [24] = test system: Hepatocyte growth factor receptor (Homo sapiens), P08581 [Y1235D]; conditions: Compound concentration 100.0 nM
# [25] = biological target: Serine/threonine-protein kinase Nek10 (Homo sapiens) (UniProt Q6ZWH5); conditions: Compound concentration 100.0 nM
# [26] = biological target: Serine/threonine-protein kinase Nek11 (Homo sapiens) (UniProt Q8NG66); conditions: Compound concentration 100.0 nM
# [27] = biological target: Serine/threonine-protein kinase PAK 3 (Homo sapiens) (UniProt O75914); conditions: Compound concentration 100.0 nM
# [28] = biological target: 3-phosphoinositide-dependent protein kinase 1 (Homo sapiens) (UniProt O15530); conditions: Compound concentration 100.0 nM
# [29] = test system: Phosphatidylinositol 4,5-bisphosphate 3-kinase catalytic subunit alpha isoform (Homo sapiens), P42336 [H1047Y]; conditions: Compound concentration 100.0 nM
# [30] = biological target: Serine/threonine-protein kinase N1 (Homo sapiens) (UniProt Q16512); conditions: Compound concentration 100.0 nM
# [31] = biological target: Serine/threonine-protein kinase PLK1 (Homo sapiens) (UniProt P53350); conditions: Compound concentration 100.0 nM
# [32] = biological target: Ribosomal protein S6 kinase alpha-5 (Homo sapiens) (UniProt O75582); conditions: Compound concentration 100.0 nM
# [33] = biological target: Ribosomal protein S6 kinase alpha-6 (Homo sapiens) (UniProt Q9UK32); conditions: Compound concentration 100.0 nM
# [34] = biological target: Serine/threonine-protein kinase Sgk3 (Homo sapiens) (UniProt Q96BR1); conditions: Compound concentration 100.0 nM
# [35] = biological target: NUAK family SNF1-like kinase 2 (Homo sapiens) (UniProt Q9H093); conditions: Compound concentration 100.0 nM
# [36] = biological target: Proto-oncogene tyrosine-protein kinase Src (Homo sapiens, UniProt P12931); conditions: Compound concentration 100.0 nM
# [37] = biological target: Tyrosine-protein kinase Srms (Homo sapiens) (UniProt Q9H3Y6); conditions: Compound concentration 100.0 nM
# [38] = biological target: SRSF protein kinase 3 (Homo sapiens) (UniProt Q9UPE1); conditions: Compound concentration 100.0 nM
# [39] = biological target: STE20/SPS1-related proline-alanine-rich protein kinase (Homo sapiens) (UniProt Q9UEW8); conditions: Compound concentration 100.0 nM
# [40] = biological target: Mitogen-activated protein kinase kinase kinase 7 (Homo sapiens) (UniProt O43318); conditions: Compound concentration 100.0 nM
# [41] = biological target: Transient receptor potential cation channel subfamily M member 6 (Homo sapiens) (UniProt Q9BX84); conditions: Compound concentration 100.0 nM
# [42] = biological target: Vascular endothelial growth factor receptor 2 (Homo sapiens) (UniProt P35968); conditions: Compound concentration 100.0 nM
# [43] = biological target: Serine/threonine-protein kinase WNK2 (Homo sapiens) (UniProt Q9Y3S1); conditions: Compound concentration 100.0 nM
# [44] = biological target: 5-hydroxytryptamine receptor 2A (Homo sapiens) (UniProt P28223); conditions: Compound concentration 10.0 uM
# Chain of NUAK family SNF1-like kinase 2 (Homo sapiens) (Q9H093 whole entry): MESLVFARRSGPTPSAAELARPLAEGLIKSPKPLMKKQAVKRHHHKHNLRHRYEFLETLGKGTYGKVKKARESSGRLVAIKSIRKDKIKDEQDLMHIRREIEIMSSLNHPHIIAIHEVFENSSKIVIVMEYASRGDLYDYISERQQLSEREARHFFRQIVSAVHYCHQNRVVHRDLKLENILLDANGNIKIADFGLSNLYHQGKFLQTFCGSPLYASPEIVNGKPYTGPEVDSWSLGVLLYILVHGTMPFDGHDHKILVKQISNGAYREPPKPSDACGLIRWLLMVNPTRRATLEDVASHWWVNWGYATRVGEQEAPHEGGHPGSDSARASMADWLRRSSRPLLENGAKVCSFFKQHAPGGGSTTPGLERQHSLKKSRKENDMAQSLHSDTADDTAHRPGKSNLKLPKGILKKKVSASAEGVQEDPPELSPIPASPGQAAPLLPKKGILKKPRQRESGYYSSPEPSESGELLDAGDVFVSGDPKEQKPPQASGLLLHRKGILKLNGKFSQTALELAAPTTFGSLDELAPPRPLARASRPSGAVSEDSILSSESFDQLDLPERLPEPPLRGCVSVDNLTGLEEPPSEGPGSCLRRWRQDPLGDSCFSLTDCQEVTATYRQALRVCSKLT
# Chain of BMP-2-inducible protein kinase (Homo sapiens) (Q9NSY1 whole entry, looked up): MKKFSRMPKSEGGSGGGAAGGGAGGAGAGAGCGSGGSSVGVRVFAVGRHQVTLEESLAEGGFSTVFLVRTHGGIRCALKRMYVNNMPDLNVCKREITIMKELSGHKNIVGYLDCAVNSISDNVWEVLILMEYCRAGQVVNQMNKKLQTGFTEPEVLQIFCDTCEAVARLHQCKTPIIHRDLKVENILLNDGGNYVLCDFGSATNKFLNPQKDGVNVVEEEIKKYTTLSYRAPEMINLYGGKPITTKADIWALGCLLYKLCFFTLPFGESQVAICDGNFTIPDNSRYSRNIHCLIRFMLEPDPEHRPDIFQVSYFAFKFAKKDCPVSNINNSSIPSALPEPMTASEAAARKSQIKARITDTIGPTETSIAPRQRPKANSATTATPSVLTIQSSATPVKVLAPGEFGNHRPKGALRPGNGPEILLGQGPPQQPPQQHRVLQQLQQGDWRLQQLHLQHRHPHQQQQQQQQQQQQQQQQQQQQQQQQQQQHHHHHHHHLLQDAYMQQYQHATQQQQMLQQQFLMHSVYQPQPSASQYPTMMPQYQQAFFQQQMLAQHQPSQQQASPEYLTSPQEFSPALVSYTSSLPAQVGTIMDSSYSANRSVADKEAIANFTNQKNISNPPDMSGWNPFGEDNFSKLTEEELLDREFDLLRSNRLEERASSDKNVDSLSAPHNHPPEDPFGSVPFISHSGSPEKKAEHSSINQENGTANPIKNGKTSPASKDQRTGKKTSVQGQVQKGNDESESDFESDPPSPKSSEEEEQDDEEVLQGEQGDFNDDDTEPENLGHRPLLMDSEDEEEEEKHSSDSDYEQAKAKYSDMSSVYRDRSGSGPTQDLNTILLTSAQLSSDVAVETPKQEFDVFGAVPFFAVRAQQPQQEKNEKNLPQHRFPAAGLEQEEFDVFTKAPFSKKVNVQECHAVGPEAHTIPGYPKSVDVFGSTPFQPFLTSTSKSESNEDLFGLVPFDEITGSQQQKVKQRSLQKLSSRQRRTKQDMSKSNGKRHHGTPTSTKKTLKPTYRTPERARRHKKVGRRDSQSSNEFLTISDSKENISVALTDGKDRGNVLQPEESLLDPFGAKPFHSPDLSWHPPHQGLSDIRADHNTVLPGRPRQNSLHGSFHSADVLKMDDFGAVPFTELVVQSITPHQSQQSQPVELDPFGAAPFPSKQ
# Chain of Mitogen-activated protein kinase kinase kinase 4 (Homo sapiens) (Q9Y6R4 whole entry): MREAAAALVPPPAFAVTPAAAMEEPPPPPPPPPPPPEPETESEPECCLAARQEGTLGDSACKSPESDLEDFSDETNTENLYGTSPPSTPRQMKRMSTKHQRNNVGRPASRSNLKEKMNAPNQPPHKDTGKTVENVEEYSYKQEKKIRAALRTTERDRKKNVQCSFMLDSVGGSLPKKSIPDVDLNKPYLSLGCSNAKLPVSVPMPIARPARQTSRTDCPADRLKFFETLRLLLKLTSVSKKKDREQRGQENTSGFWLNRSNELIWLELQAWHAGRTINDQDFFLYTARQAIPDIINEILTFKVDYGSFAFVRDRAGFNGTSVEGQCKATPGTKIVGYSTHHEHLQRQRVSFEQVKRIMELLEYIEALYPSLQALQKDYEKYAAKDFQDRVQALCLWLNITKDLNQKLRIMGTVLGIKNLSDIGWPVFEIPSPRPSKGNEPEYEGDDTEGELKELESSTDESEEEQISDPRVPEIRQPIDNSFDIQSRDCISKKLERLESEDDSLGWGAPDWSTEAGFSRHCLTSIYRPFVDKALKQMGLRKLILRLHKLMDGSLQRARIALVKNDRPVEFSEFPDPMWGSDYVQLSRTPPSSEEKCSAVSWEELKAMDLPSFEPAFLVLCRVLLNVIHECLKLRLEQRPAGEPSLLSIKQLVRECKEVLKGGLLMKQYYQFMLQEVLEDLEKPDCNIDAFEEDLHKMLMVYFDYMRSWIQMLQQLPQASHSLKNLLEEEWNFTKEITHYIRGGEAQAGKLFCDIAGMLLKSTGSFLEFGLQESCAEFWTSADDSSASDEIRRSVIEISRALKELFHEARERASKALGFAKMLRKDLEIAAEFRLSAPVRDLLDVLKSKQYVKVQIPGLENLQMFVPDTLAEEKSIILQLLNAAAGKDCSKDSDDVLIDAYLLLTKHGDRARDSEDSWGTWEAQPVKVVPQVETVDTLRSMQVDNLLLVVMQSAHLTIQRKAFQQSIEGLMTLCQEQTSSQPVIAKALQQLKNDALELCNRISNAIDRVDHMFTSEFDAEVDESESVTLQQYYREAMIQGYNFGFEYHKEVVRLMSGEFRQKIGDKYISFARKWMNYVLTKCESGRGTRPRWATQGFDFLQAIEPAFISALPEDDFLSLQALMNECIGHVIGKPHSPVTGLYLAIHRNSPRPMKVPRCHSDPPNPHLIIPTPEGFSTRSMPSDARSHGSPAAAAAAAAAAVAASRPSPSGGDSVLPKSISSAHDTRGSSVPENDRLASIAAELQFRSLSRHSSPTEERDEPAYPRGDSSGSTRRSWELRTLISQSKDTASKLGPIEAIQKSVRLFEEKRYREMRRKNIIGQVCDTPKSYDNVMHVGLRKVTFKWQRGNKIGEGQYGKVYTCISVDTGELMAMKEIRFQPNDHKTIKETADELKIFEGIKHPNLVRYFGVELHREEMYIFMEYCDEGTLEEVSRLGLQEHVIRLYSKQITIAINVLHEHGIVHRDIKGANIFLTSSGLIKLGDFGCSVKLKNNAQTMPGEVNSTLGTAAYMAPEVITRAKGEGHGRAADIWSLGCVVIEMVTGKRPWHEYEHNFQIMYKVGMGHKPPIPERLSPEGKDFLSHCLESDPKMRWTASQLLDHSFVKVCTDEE
# Chain of Casein kinase I isoform delta (Homo sapiens) (P48730 whole entry, looked up, canonical isoform): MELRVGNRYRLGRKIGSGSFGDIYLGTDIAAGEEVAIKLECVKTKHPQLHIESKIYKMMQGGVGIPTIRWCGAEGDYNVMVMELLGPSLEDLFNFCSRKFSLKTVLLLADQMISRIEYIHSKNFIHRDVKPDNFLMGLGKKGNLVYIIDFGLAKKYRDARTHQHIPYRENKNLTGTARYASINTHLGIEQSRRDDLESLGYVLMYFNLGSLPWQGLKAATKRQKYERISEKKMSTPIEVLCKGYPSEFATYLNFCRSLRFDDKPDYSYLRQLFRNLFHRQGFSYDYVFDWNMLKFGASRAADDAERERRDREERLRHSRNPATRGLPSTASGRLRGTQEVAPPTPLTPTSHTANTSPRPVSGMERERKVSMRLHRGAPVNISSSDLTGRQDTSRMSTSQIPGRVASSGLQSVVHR
# Chain of Serine/threonine-protein kinase Nek10 (Homo sapiens) (Q6ZWH5 whole entry): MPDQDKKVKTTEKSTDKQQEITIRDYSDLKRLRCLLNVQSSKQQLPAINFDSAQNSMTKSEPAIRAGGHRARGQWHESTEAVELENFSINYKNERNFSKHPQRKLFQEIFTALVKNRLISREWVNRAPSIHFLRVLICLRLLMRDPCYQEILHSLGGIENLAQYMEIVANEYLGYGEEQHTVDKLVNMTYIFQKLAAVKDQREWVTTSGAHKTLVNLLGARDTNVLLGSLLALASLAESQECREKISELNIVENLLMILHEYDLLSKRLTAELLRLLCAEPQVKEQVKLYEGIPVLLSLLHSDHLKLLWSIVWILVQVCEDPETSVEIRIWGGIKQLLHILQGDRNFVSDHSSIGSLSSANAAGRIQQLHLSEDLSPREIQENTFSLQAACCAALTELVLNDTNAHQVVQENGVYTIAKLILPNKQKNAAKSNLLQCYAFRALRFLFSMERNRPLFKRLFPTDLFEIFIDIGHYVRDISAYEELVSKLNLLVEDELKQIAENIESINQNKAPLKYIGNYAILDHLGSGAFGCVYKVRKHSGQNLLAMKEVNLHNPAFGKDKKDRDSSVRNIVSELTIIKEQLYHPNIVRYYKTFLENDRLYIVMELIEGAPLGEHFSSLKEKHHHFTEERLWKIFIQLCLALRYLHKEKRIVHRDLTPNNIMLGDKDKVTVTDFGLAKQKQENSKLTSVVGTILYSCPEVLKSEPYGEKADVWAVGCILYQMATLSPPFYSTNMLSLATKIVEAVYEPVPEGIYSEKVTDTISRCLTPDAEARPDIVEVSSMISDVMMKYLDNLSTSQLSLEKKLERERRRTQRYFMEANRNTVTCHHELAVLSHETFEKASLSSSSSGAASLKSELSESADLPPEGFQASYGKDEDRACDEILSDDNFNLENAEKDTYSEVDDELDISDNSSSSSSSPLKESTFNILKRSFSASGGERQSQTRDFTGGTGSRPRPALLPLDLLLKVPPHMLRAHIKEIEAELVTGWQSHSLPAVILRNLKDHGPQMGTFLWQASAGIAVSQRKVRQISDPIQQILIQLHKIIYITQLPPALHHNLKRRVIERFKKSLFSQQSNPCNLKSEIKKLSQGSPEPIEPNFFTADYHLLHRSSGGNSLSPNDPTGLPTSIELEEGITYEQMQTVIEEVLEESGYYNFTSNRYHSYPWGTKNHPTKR
smiles,measurement,setting,value
Cc1ccc(-c2cnc([C@@]3(O)CC[C@H](C(=O)O)C(C)(C)C3)s2)cc1Nc1cccc(C(F)(F)F)n1 [MRL-SYKi-NC],residual activity,[1],100%
same,residual activity,[2],90.8%
same,residual activity,[3],95.4%
same,residual activity,[4],75.6%
same,residual activity,[5],100%
same,residual activity,[6],100%
same,residual activity,[7],91.9%
same,residual activity,[8],92.5%
same,residual activity,[9],100%
same,residual activity,[10],97.4%
same,residual activity,[11],100%
same,residual activity,[12],100%
same,residual activity,[13],95.4%
same,residual activity,[14],56.9%
same,residual activity,[15],100%
same,residual activity,[16],91.7%
same,residual activity,[17],43.1%
same,residual activity,[18],99.7%
same,residual activity,[19],100%
same,residual activity,[20],87.4%
same,residual activity,[21],96%
same,residual activity,[22],100%
same,residual activity,[23],95.4%
same,residual activity,[24],77.3%
same,residual activity,[25],97.3%
same,residual activity,[26],93%
same,residual activity,[27],76.3%
same,residual activity,[28],95.5%
same,residual activity,[29],81.3%
same,residual activity,[30],100%
same,residual activity,[31],20.2%
same,residual activity,[32],100%
same,residual activity,[33],90.8%
same,residual activity,[34],100%
same,residual activity,[35],93.1%
same,residual activity,[36],100%
same,residual activity,[37],100%
same,residual activity,[38],100%
same,residual activity,[39],100%
same,residual activity,[40],92.6%
same,residual activity,[41],77.1%
same,residual activity,[42],100%
same,residual activity,[43],98.6%
same,inhibition,[44],11.2%
Cc1cc(Nc2nccc(C)n2)cc(-c2cnc([C@@]3(O)CC[C@H](C(=O)O)C(C)(C)C3)s2)c1 [MRL-SYKi],residual activity,[1],100%
same,residual activity,[2],100%
same,residual activity,[3],93.3%
same,residual activity,[4],78.8%
same,residual activity,[5],100%
same,residual activity,[6],100%
same,residual activity,[7],100%
same,residual activity,[8],100%
same,residual activity,[9],94.5%
same,residual activity,[10],69.4%
same,residual activity,[11],78.6%
same,residual activity,[12],66.6%
same,residual activity,[13],100%
same,residual activity,[14],100%
same,residual activity,[15],100%
same,residual activity,[16],65.4%
same,residual activity,[17],100%
same,residual activity,[18],83.9%
same,residual activity,[19],93.1%
same,residual activity,[20],87.1%
same,residual activity,[21],100%
same,residual activity,[22],67.4%
same,residual activity,[23],95.4%
same,residual activity,[24],89.9%
same,residual activity,[25],53.1%
same,residual activity,[26],61.2%
same,residual activity,[27],100%
same,residual activity,[28],86.5%
same,residual activity,[29],14.7%
same,residual activity,[30],96.9%
same,residual activity,[31],100%
same,residual activity,[32],100%
same,residual activity,[33],100%
same,residual activity,[34],100%
same,residual activity,[35],100%
same,residual activity,[36],53.7%
same,residual activity,[37],81.2%
same,residual activity,[38],100%
same,residual activity,[39],81.8%
same,residual activity,[40],100%
same,residual activity,[41],94.8%
same,residual activity,[42],100%
same,residual activity,[43],81.2%
same,inhibition,[44],-4.23%
